Assay [1] deals with engineered strain of Escherichia coli harboring CTX-M15. The experiment in a line: microbe, parasite or virus in culture. Particulars: Escherichia coli, read-out: Microbiological Activity (MIC in mg/L), E. coli DH5α/pLBII-CTX-M15, engineered strain producing CTX-M15. It counts as cell-based.
Assay [2] addresses E. coli PBP3 (Escherichia coli (strain K12), UniProt P0AD68). In words: E. coli PBP3 Bocillin-FL fluorescence polarization competition binding assay. A digest of the protocol: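 Competition against 0.1 μM Bocillin-FL for binding to 1.5 μM purified protein, read by fluorescence polarization for 60 min. Compounds tested from 0 to 1000 μM; EC50 taken as the concentration reducing probe binding.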

Assay [3] deals with E. coli PBP1b (Escherichia coli (strain K12), UniProt P02919). In words: Radioligand competition binding assay with 14C-labeled boronic acid probe, PBP1b. The source says: To determine the ability of boronic acid-based test PBP inhibitors to bind Penicillin Binding Proteins (PBPs), a radio-labelled boronic acid PBP inhibitor
Chain of E. coli PBP1b (P02919 whole entry): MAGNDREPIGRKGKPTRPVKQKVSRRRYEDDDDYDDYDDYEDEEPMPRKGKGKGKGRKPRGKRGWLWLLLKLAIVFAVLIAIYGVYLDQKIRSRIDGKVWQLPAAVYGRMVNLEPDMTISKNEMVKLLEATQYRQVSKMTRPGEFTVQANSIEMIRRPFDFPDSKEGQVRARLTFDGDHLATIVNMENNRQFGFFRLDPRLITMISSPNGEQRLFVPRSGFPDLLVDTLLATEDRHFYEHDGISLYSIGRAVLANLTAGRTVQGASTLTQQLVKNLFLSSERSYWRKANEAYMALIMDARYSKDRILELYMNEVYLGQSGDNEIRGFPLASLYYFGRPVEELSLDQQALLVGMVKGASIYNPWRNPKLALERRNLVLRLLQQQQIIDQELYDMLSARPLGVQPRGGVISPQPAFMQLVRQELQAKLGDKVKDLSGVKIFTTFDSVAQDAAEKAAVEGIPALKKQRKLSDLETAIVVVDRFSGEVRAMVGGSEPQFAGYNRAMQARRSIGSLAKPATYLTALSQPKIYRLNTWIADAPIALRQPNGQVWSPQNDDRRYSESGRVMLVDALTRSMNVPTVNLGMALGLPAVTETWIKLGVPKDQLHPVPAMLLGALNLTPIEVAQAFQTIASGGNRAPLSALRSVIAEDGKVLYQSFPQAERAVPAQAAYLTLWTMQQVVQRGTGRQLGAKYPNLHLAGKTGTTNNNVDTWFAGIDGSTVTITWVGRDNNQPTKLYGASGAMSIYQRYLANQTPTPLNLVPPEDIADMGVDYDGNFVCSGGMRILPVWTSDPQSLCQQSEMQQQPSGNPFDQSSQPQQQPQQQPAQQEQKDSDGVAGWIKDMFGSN
[drawing 751] was used in competition binding assays to determine boronic acid PBP inhibitor binding to PBP1a or PBP1b from Escherichia coli. PBP1a and PBP1b were purified as described previously (Bertsche, U.; et al., J. Biol. Chem. 2005, 280 (45), 38096-38101; Born, P.; et al., J. Biol. Chem. 2006. 281 (37), 26985-26993). To establish assay conditions for competition binding, an enzyme titration/saturation binding experiment was performed. Saturation binding was performed in a buffer comprised of 20 mM Tris (pH 7.5), 500 mM NaCl and 0.1% (v/v) TritonX-100, with PBP1a/PBP1b at a final concentration of 0.1 μM and Compound A at final concentrations ranging from 0-100 μM. Mixtures were incubated for 60 minutes, then applied to Zeba Spin Desalting columns or plates (ThermoFisher Scientific) and centrifuged at 1000-1500×g for 2 minutes. The flow through, containing PBP bound with Compound A, was recovered and 100 μL mixed with 5 mL of UltimaGold liquid scintillation cocktail (Perkin Elmer), and the radioactivity counted using a Beckman Coulter LS 6500 Multipurpose scintillation counter. PBP binding of Compound A approached saturation at 20 μM of ^14C-labeled probe. The competition binding assay was validated using the beta-lactam ampicillin, with Compound A at a final concentration of 20 μM, PBP1a/PBP1b at a final concentration of 0.1 μM. PBP1a/PBP1b was incubated with ampicillin in a 96-well microplate for 60 minutes, then Compound A was added and the mixtures incubated for an additional 60 minutes. The mixtures were then applied to Zeba Spin desalting plates and centrifuged at 1000×g for 2 minutes. The flow through was recovered and 100 μl mixed with 5 ml of UltimaGold liquid scintillation cocktail and the radioactivity counted. […] Binding assays with boronic acid PBP inhibitors were performed in an identical fashion. The potency of boronic acid PBP inhibitors was reported as the EC50 value.

The mark [4] stands for this setting: fluorescence polarization competition binding with Bocillin-FL, read-out: E. coli K12 PBP3 Potency.

Converted amounts (≈) assume the structure as drawn. Structures can show the parent of a compound that is named as a salt. Where two headings read alike, the source gives them in different places.

This note sets out measurements from patent publication US12173018B2, “Penicillin-binding protein inhibitors” (priority 2018, dated 2024).

Chain of E. coli PBP3 (P0AD68 whole entry): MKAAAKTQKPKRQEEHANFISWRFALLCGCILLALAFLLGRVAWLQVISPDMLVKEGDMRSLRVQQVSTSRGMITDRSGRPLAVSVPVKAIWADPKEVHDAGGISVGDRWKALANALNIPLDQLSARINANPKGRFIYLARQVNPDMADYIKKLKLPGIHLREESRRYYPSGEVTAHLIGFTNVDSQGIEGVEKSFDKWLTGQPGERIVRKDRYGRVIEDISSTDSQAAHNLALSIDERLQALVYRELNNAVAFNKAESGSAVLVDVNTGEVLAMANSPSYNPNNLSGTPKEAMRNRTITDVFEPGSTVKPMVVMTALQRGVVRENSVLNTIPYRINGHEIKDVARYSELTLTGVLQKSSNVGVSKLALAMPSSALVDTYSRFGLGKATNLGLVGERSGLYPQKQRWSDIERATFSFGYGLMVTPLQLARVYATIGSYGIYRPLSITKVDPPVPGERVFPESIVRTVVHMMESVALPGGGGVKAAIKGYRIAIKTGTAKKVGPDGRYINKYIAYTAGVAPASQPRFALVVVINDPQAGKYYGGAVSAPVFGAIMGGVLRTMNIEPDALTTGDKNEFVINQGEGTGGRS

Consider `CCN1CCN(C(=O)NC(C(=O)N[C@H]2Cc3cccc(C(=O)O)c3OB2O)c2cnn(C)c2)C(=O)C1=O` (stereo partly drawn) [Example 60, (3R)-3-(2-(4-ethyl-2,3-dioxopiperazine-1-carboxamido)-2-(1-methyl-1H-pyrazol-4-yl)acetamido)-2-hydroxy-3,4-dihydro-2H-benzo[e][1,2]oxaborinine-8-carboxylic acid], for which the MIC in assay [1] was 32 to 64 mg/L (≈ 62.5 to 125 µM). Further, the EC50 in assay [2] was 30 to 500 µM; in assay [3] it was 10 to 100 µM.

As for `CCN1CCN(C(=O)N[C@H](C(=O)N[C@H]2Cc3cccc(C(=O)O)c3OB2O)C2(CO)CC2)C(=O)C1=O` [Example 63, (R)-3-((S)-2-(4-ethyl-2,3-dioxopiperazine-1-carboxamido)-2-(1-(hydroxymethyl)cyclopropyl)acetamido)-2-hydroxy-3,4-dihydro-2H-benzo[e][1,2]oxaborinine-8-carboxylic acid], in assay [1], the MIC lay in the range of 128 to 256 mg/L (≈ 255 to 510 µM). The EC50 was over 500 µM in assay [2] (setting [4]) and under 10 µM in assay [3].

Regarding `CCN1CCN(C(=O)NC(C(=O)N[C@H]2Cc3cccc(C(=O)O)c3OB2O)c2ccc(CCN)cc2)C(=O)C1=O` (stereo partly drawn) [Example 64, (3R)-3-(2-(4-(2-aminoethyl)phenyl)-2-(4-ethyl-2,3-dioxopiperazine-1-carboxamido)acetamido)-2-hydroxy-3,4-dihydro-2H-benzo[e][1,2]oxaborinine-8-carboxylic acid], in assay [1], the MIC fell in the range of 128 to 256 mg/L (≈ 232 to 464 µM). The EC50 in assay [2] (setting [4]) was over 500 µM; in assay [3] it was 10 to 100 µM.

As to `CCN1CCN(C(=O)NC(C(=O)N[C@H]2Cc3cccc(C(=O)O)c3OB2O)c2ccc(O)nc2Cl)C(=O)C1=O` (stereo partly drawn) [Example 67, (3R)-3-(2-(2-chloro-6-hydroxypyridin-3-yl)-2-(4-ethyl-2,3-dioxopiperazine-1-carboxamido)acetamido)-2-hydroxy-3,4-dihydro-2H-benzo[e][1,2]oxaborinine-8-carboxylic acid], the MIC in assay [1] was 128 to 256 mg/L (≈ 229 to 457 µM). Besides, the EC50 is 30 to 500 µM in assay [2] and 10 to 100 µM in assay [3].

In the case of `CCN1CCN(C(=O)NC(CNS(N)(=O)=O)C(=O)N[C@H]2Cc3cccc(C(=O)O)c3OB2O)C(=O)C1=O` (stereo partly drawn) [Example 68, (3R)-3-(2-(4-ethyl-2,3-dioxopiperazine-1-carboxamido)-3-(sulfamoylamino)propanamido)-2-hydroxy-3,4-dihydro-2H-benzo[e][1,2]oxaborinine-8-carboxylic acid], in assay [1], the MIC fell in the range of 32 to 64 mg/L (≈ 59.2 to 118 µM). Besides, the EC50 in assay [2] (setting [4]) is over 500 µM; in assay [3] it was under 10 µM.

Regarding `CCN1CCN(C(=O)NC(CNC(C)=O)C(=O)N[C@H]2Cc3cccc(C(=O)O)c3OB2O)C(=O)C1=O` (stereo partly drawn) [Example 69, (3R)-3-(3-acetamido-2-(4-ethyl-2,3-dioxopiperazine-1-carboxamido)propanamido)-2-hydroxy-3,4-dihydro-2H-benzo[e][1,2]oxaborinine-8-carboxylic acid], the MIC in assay [1] is 128 to 256 mg/L (≈ 254 to 509 µM). Further, the EC50 in assay [2] (setting [4]) was over 500 µM; in assay [3], under 10 µM.

In the case of `CCN1CCN(C(=O)NC(C(=O)N[C@H]2Cc3cccc(C(=O)O)c3OB2O)C2CCN(CC(=O)O)CC2)C(=O)C1=O` (stereo partly drawn) [Example 72, (3R)-3-(2-(1-(carboxymethyl)piperidin-4-yl)-2-(4-ethyl-2,3-dioxopiperazine-1-carboxamido)acetamido)-2-hydroxy-3,4-dihydro-2H-benzo[e][1,2]oxaborinine-8-carboxylic acid, trifluoroacetic acid salt], in assay [1], the MIC lay within 128 to 256 mg/L. Further, the EC50 in assay [2] is 30 to 500 µM; in assay [3], under 10 µM.

Take `CCN1CCN(C(=O)N[C@H](CNCC(=O)O)C(=O)N[C@H]2Cc3cccc(C(=O)O)c3OB2O)C(=O)C1=O` [Example 73, (R)-3-((R)-3-((carboxymethyl)amino)-2-(4-ethyl-2,3-dioxopiperazine-1-carbox-amido)propanamido)-2-hydroxy-3,4-dihydro-2H-benzo[e][1,2]oxaborinine-8-carboxylic acid, trifluoroacetic acid salt]: the MIC in assay [1] fell in the range of 128 to 256 mg/L. Moreover, the EC50 in assay [2] (setting [4]) is over 500 µM; in assay [3], over 100 µM.

On to `CCN1CCN(C(=O)NC(C(=O)N[C@H]2Cc3cccc(C(=O)O)c3OB2O)c2ccc(OCCO)cc2)C(=O)C1=O` (stereo partly drawn) [Example 74, (3R)-3-(2-(4-ethyl-2,3-dioxopiperazine-1-carboxamido)-2-(4-(2-hydroxyethoxy)phenyl)acetamido)-2-hydroxy-3,4-dihydro-2H-benzo[e][1,2]oxaborinine-8-carboxylic acid], for which the MIC in assay [1] lay in the range of 128 to 256 mg/L (≈ 225 to 450 µM). The EC50 in assay [2] is 30 to 500 µM; in assay [3], over 100 µM.

For `CCN1CCN(C(=O)NC(C(=O)N[C@H]2Cc3cccc(C(=O)O)c3OB2O)C2CCN(S(N)(=O)=O)CC2)C(=O)C1=O` (stereo partly drawn) [Example 77, (3R)-3-(2-(4-ethyl-2,3-dioxopiperazine-1-carboxamido)-2-(1-sulfamoylpiperidin-4-yl)acetamido)-2-hydroxy-3,4-dihydro-2H-benzo[e][1,2]oxaborinine-8-carboxylic acid], the MIC in assay [1] is 128 to 256 mg/L (≈ 215 to 431 µM). In addition, the EC50 in assay [2] was 30 to 500 µM; in assay [3], under 10 µM.

On to `CCN1CCN(C(=O)NC(C(=O)N[C@H]2Cc3cccc(C(=O)O)c3OB2O)C2CN(S(N)(=O)=O)C2)C(=O)C1=O` (stereo partly drawn) [Example 78, (3R)-3-(2-(4-ethyl-2,3-dioxopiperazine-1-carboxamido)-2-(1-sulfamoylazetidin-3-yl)acetamido)-2-hydroxy-3,4-dihydro-2H-benzo[e][1,2]oxaborinine-8-carboxylic acid], for which, in assay [1], the MIC was in the range of 128 to 256 mg/L (≈ 226 to 452 µM). Moreover, the EC50 in assay [3] is over 100 µM.

In the case of `CCN1CCN(C(=O)N[C@@H](CNS(C)(=O)=O)C(=O)N[C@H]2Cc3cccc(C(=O)O)c3OB2O)C(=O)C1=O` [Example 84, (R)-3-((S)-2-(4-ethyl-2,3-dioxopiperazine-1-carboxamido)-3-(methylsulfonamido)propanamido)-2-hydroxy-3,4-dihydro-2H-benzo[e][1,2]oxaborinine-8-carboxylic acid], the MIC in assay [1] is 128 to 256 mg/L (≈ 237 to 475 µM). In addition, the EC50 in assay [2] was 30 to 500 µM; in assay [3], under 10 µM.

Regarding `CCN1CCN(C(=O)NC(C(=O)N[C@H]2Cc3cccc(C(=O)O)c3OB2O)c2ccc(O)cc2Cl)C(=O)C1=O` (stereo partly drawn) [Example 88, (3R)-3-(2-(2-chloro-4-hydroxyphenyl)-2-(4-ethyl-2,3-dioxopiperazine-1-carboxamido)acetamido)-2-hydroxy-3,4-dihydro-2H-benzo[e][1,2]oxaborinine-8-carboxylic acid], in assay [1], the MIC fell in the range of 128 to 256 mg/L (≈ 229 to 458 µM). Moreover, the EC50 was under 30 µM in assay [2] (setting [4]) and under 10 µM in assay [3].

Take `CCN1CCN(C(=O)N[C@@H](C(=O)N[C@H]2Cc3cccc(C(=O)O)c3OB2O)C2CCN(C(=N)N)CC2)C(=O)C1=O` [Example 91, (R)-3-((R)-2-(1-carbamimidoylpiperidin-4-yl)-2-(4-ethyl-2,3-dioxopiperazine-1-carboxamido)acetamido)-2-hydroxy-3,4-dihydro-2H-benzo[e][1,2]oxaborinine-8-carboxylic acid]: the MIC in assay [1] was 128 to 256 mg/L (≈ 230 to 459 µM). The EC50 in assay [2] is over 500 µM; in assay [3], under 10 µM.

Consider `CCN1CCN(C(=O)N[C@H](C(=O)N[C@H]2Cc3cccc(C(=O)O)c3OB2O)C2CCN(C(=N)N)CC2)C(=O)C1=O` [Example 92, (R)-3-((S)-2-(1-carbamimidoylpiperidin-4-yl)-2-(4-ethyl-2,3-dioxopiperazine-1-carboxamido)acetamido)-2-hydroxy-3,4-dihydro-2H-benzo[e][1,2]oxaborinine-8-carboxylic acid], for which the MIC in assay [1] was 128 to 256 mg/L (≈ 230 to 459 µM). The EC50 is over 500 µM in assay [2] and under 10 µM in assay [3].

Consider `CCN1CCN(C(=O)NC(C(=O)N[C@H]2Cc3cccc(C(=O)O)c3OB2O)C(Cl)CCCO)C(=O)C1=O` (stereo partly drawn) [Example 129, (3R)-3-(3-chloro-2-(4-ethyl-2,3-dioxopiperazine-1-carboxamido)-6-hydroxyhexanamido)-2-hydroxy-3,4-dihydro-2H-benzo[e][1,2]oxaborinine-8-carboxylic acid], for which the EC50 in assay [2] (setting [4]) was over 500 µM; in assay [3], over 100 µM.

For the molecule `CCN1CCN(C(=O)NC(C(=O)N[C@H]2Cc3cccc(C(=O)O)c3OB2O)c2ccc(N)cn2)C(=O)C1=O` (stereo partly drawn) [Example 132, (3R)-3-(2-(5-aminopyridin-2-yl)-2-(4-ethyl-2,3-dioxopiperazine-1-carboxamido)acetamido)-2-hydroxy-3,4-dihydro-2H-benzo[e][1,2]oxaborinine-8-carboxylic acid], the EC50 was under 30 µM in assay [2] (setting [4]) and 10 to 100 µM in assay [3].
